Assay results from US20220096664A1, “STABILIZED FORMULATIONS CONTAINING IODINATED CONTRAST AGENTS AND CYCLODEXTRINS” (Verrow Pharmaceuticals, Inc., priority 2012, published 2022).
Where two headings read alike, the source gives them in different places. Blank lines part the entries; values can stand above or below the molecule they belong to.

Assays:
[1] = format: physicochemical
Method: (§1) The lamps were switched on and the solutions irradiated for 18 to 24 hours for the ultraviolet (UV) lamps or 72 to 90 hours for the visible (VIS) light lamps. At the end of the selected irradiation time, the cuvettes were removed from the photolysis chamber and mixed by inversion 2-times. The caps were then removed and 40 microliter aliquots taken and diluted with 1 mL of an aqueous solution containing ˜0.9 mg/mL sodium thiosulfate. The thiosulfate solution converted any I2, IO3^−, and I3^− present in the solution tor such that total iodine species could be determined in one assay.
(§2) The diluted solutions were assayed by high pressure liquid chromatography (HPLC) using a 4.6×250 mm, C-18, 5 micron particle size, reversed phase column with detection at 280 nm for the contrast agent and 230 nm for the thiosulfate and the iodide ion (r). A mobile phase of 30:70 methanol:aqueous buffer (50 mM KH2PO4+7 mL/L 40% tetrabutyl ammonium hydroxide) at 0.75 mL/min was used for elution. Injection volume was 20 microliters. External standards were prepared containing each contrast agent, potassium iodide, and sodium thiosulfate solution and analyzed along with the irradiated samples. The results were reported as weight percentage iodide formed (mg iodide/mg contrast agent times 100).
(§3) Aqueous solutions were prepared containing 50 mM iodinated contrast agent, 10 mM tromethamine HCl buffer (TRIS), with and without sulfobutylether beta-cyclodextrin with an average degree of substitution-7 (SBE7-β-CD), or 2-hydroxypropyl beta-cyclodextrin with an average degree of substitution of ˜6.3 (HP6.3-β-CD) or ˜4.3 (HP4.3-β-CD). The iohexol solution was prepared by dissolving solid iohexol powder while the other solutions were prepared by diluting commercial formulated products and adding sufficient TRIS buffer to reach 10 mM. The pH of the solutions was adjusted to 7.4 with 0.1N hydrochloric acid.
Aliquots of the solutions were irradiated with visible light for 72 hours (0.52 million lux hours). Other aliquots were autoclaved for 20 minutes at 121° C., cooled to room temperature and then irradiated with ultraviolet light for 18 hours (119 watt hours/m2). The solutions were then processed, analyzed and reported as in Example 2, except that the chromatographic peaks of the contrast agents were evaluated at 300 nm for both samples and standards. […]
Aqueous formulations were prepared containing iodinated contrast agents at concentrations used commercially in medical procedures. Sulfobutylether-cyclodextrin, sodium salt, average degree of substitution ˜7 (SBE7CD) was added at varying agent:CD mole ratios. The formulations were placed in glass vials, sealed with rubber stoppers and aluminum crimps, and autoclaved at 121° C. for 20 minutes. Aliquots of the autoclaved solutions were exposed to UV light for 24 hours (159 watt hours/m^2 or VIS light for 72 hours (0.52 million lux hours) as in Example 2. The solutions were then processed, analyzed and reported as in Example 2, with the following two exceptions; 1) the chromatographic peaks of the contrast agents were evaluated at 300 nm for both samples and standards, and 2) only 20 microliter sample aliquots were taken and diluted for HPLC analysis due to the higher concentrations used in this study. Results of the study are presented in the table below along with the solution compositions.

[2] = format: physicochemical; details: for Iodide formed: 50 mM agent, 10 mM TRIS
Method: as §1, §2, §3
Aliquots of the solutions were irradiated with visible light for 72 hours (0.52 million lux hours). Other aliquots were autoclaved for 20 minutes at 121° C., cooled to room temperature and then irradiated with ultraviolet light for 18 hours (119 watt hours/m2). The solutions were then processed, analyzed and reported as in Example 2, except that the chromatographic peaks of the contrast agents were evaluated at 300 nm for both samples and standards.
Aqueous solutions were prepared containing 50 mM iohexol, 0, 2.5, 5, 7.5, or 10 mM tromethamine HCl (TRIS) buffer, with and without 2.5 mM sulfobutylether beta-cyclodextrin with an average degree of substitution-7 (SBE7-β-CD). The pH of the solutions was adjusted to 7.4 with 0.1N hydrochloric acid and the solutions were transferred to glass vials. The vials were stoppered, crimp-capped and autoclaved for 20 minutes at 121° C. The pH of the autoclaved solutions was measured after the solutions were at room temperature.
Aliquots of the autoclaved solutions were irradiated with visible light for 72 hours (0.52 million lux hours) and other aliquots irradiated with ultraviolet light for 18 hours (119 watt hours/m2). The solutions were then processed, analyzed and reported as in Example 2, except that the chromatographic peak of the iohexol was evaluated at 300 nm for both samples and standards.
Aqueous formulations were prepared containing iodinated contrast agents at concentrations used commercially in medical procedures. Sulfobutylether-cyclodextrin, sodium salt, average degree of substitution ˜7 (SBE7CD) was added at varying agent:CD mole ratios. The formulations were placed in glass vials, sealed with rubber stoppers and aluminum crimps, and autoclaved at 121° C. for 20 minutes. […]

[3] = Photostability: iodide formed after visible light irradiation; format: physicochemical; details: 10 mM TRIS; for Iodide formed: 50 mM agent, pH 7.4, VIS 72 h
Method: (§4) Aqueous solutions comprising iodinated contrast agents were prepared and evaluated in a photolysis chamber as described in the ICH guidance document, Q1B Photostability Testing of New Drug Substances and Products, available from the US Food and Drug Administration, incorporated herein by reference. The solutions were placed in 1 cm×1 cm (3 mL) quartz cuvettes having 2 clear sides and 2 sides etched. Lids were placed on the cuvettes and sealed with a wrap of Parafilm® around the joint. The cuvettes were placed in a photolysis chamber, upright on a flat surface beneath and centered between two horizontal 24 inch fluorescent lamps, (GE, black light F20T12, 20 watt for ultraviolet, or Philips F20T12/CW, 20 watt for visible) placed 6 cm apart. The cuvettes were positioned such that their two clear sides were facing the two lamps.
(§5) Cuvettes were spaced ˜2 cm from each other, and no closer than 15 cm from the ends of the lamps. This positioning allowed reproducible light exposure to all cuvettes.
as §1, §2
(§6) The absorbance readings at 400 nm due to light exposure were plotted against time of exposure and the resulting correlation used to determine the UV and VIS light exposure. A change in absorbance reading of 0.45 was assumed equivalent to 200 watt hours/square meter for the UV light and a change of 0.51 was assumed equivalent to 1.2 million lux hours for the VIS light. The UV lamps provided 6.62 watts/square meter and the VIS lamps provided 7180 lux.
Aqueous solutions were prepared containing 473 mM iohexol (180 mg 1/mL), 10 mM tromethamine HCl buffer (TRIS), with and without various SCDs. The pH of the solutions was adjusted to 7.4 with 0.1N hydrochloric acid. Aliquots of the solutions were irradiated with ultraviolet (UV) light for 18 hours (119 watt hours/m^2) and other aliquots irradiated with visible (VIS) light for 90 hours (0.65 million lux hours). The solutions were then processed, analyzed and reported as in Example 2, with the exception that the iohexol peak was measured at 300 nm for both samples and standards. Results of the study are presented in the table below along with the SCD used. The SCDs included derivatives prepared from alpha, beta, and gamma CD to evaluate the effect of CD cavity size. Various substituents, including one derivative containing more than one type of substituent, and degrees of substitution (DS) were also evaluated.
Aqueous solutions were prepared containing 50 mM iodinated contrast agent, 10 mM tromethamine HCl buffer (TRIS), with and without sulfobutylether beta-cyclodextrin with an average degree of substitution-7 (SBE7-β-CD), or 2-hydroxypropyl beta-cyclodextrin with an average degree of substitution of ˜6.3 (HP6.3-β-CD) or ˜4.3 (HP4.3-β-CD). […]

[4] = contrast media solutions; cited from earlier work
[5] = Photostability: iodide formed after UV light irradiation; format: physicochemical; details: 473 mM iohexol, 10 mM TRIS, pH 7.4, UV 18 h
Method: as §4, §5, §1, §2, §6
Aqueous solutions were prepared containing 50 mM contrast agent by diluting commercially available solutions with water. Tromethamine HCl buffer (TRIS), was added to solutions as necessary to increase the TRIS content to that of the commercial product before dilution.
SCD was added to the solutions at various mole ratios and the pH of the solutions adjusted to 7.4 with 0.1N hydrochloric acid or 0.1N sodium hydroxide. The solutions were irradiated with UV light for 18 hours (119 watt hours/m^2) then processed, analyzed and reported as in Example 2. The SCDs evaluated were sulfobutyl ether beta-cyclodextrin with an average degree of substitution of 7 (SBE-704CD), and two 2-hydroxypropyl beta-cyclodextrin derivatives having 6.3 (HP-6.3n/CD) and 4.3 (HP-4.3-βCD) average degrees of substitution.
Aqueous solutions were prepared containing 50 mM contrast agent by diluting commercially available solutions with distilled water. Tromethamine HCl buffer (TRIS), was added to some solutions to increase the buffer content.
The solutions were divided and SBE-7-CD added to one aliquot at a contrast agent:SCD mole ratio of 1:1. The pH of the solutions was adjusted to 5, 6, 7, 7.4 or 8 with 0.1N hydrochloric acid or sodium hydroxide. […]

[6] = pH 7.4, autoclaved then UV 18 h, agent:SBE7-β-CD 1:0.1
[7] = pH 7.4, autoclaved then UV 18 h, no SCD (1:0)

- Iodide Formed, Autoclaved ([1]; Ioxaglate 320 mg I/mL (393 mg ioxaglate meglumine and 196 mg ioxaglate sodium), pH 7.0, no SCD (1:0)): 0.00457 wt %
- Iodide Formed, Autoclaved ([1]; Ioxaglate 320 mg I/mL, pH 7.0, agent:SBE7CD 1:0.05): 0.00329 wt %
- Iodide formed [2, 6]: 0.332 wt %
- Iodide formed [2, 7]: 0.392 wt %
- Iodide Formed, UV ([2]; Ioxaglate 320 mg I/mL, pH 7.0, agent:SBE7CD 1:0.05, autoclaved then UV 24 h): 0.0845 wt %
- Iodide Formed, VIS ([2]; Ioxaglate 320 mg I/mL, pH 7.0, agent:SBE7CD 1:0.05, autoclaved then VIS 72 h): 0.0175 wt %
- Iodide Formed, UV ([2]; Ioxaglate 320 mg I/mL, pH 7.0, no SCD (1:0), autoclaved then UV 24 h): 0.114 wt %
- Iodide Formed, VIS ([2]; Ioxaglate 320 mg I/mL, pH 7.0, no SCD (1:0), autoclaved then VIS 72 h): 0.0197 wt %
- Iodide formed ([3]; agent:SBE7-β-CD 1:0.1): 0.211 wt %
- Iodide formed ([3]; no SCD (1:0)): 0.231 wt %
Molecule: CNC(=O)c1c(I)c(C(=O)NCC(=O)Nc2c(I)c(C(=O)O)c(I)c(C(=O)NCCO)c2I)c(I)c(N(C)C(C)=O)c1I [Ioxaglate, ioxaglate]

Molecule: CNC(=O)c1c(I)c(NC(C)=O)c(I)c(C(=O)O)c1I [iothalamate sodium]
- degradation in solution after exposure to ultraviolet light [4]: formation of iodine and iodide ions

Molecule: sulfobutylether 3.5-ethylether 3.5-beta-cyclodextrin [SBE-EE-βCD]
- I- formed, UV ([5]; iohexol:SCD 1:0.05): 0.0825 wt %
- % Change in iodide degradants (UV) ([5]; iohexol:SCD 1:0.05 vs control): −22.9% (UV)
- I- formed, VIS ([3]; 473 mM iohexol, pH 7.4, VIS 90 h, iohexol:SCD 1:0.05): 0.0584 wt %
- % Change in iodide degradants (Vis) ([3]; 473 mM iohexol, pH 7.4, VIS 90 h, iohexol:SCD 1:0.05 vs control): −5.3% (Vis)

- Iodide Formed, Autoclaved ([1]; Iopamidol 200 mg I/mL, pH 7, agent:SBE7CD 1:0.05): 0.00338 wt %
- Iodide Formed, Autoclaved ([1]; Iopamidol 200 mg I/mL, pH 7, no SCD (1:0)): 0.00347 wt %
- Iodide formed [2, 6]: 0.470 wt %
- Iodide formed [2, 7]: 0.540 wt %
- Iodide formed ([2]; pH 7.4, autoclaved then visible light, agent:SBE7-β-CD 1:0.1): 0.344 wt %
- Iodide formed ([2]; pH 7.4, autoclaved then visible light, no SCD (1:0)): 0.348 wt %
- Iodide Formed, UV ([2]; Iopamidol 200 mg I/mL, pH 7, agent:SBE7CD 1:0.05, autoclaved then UV 24 h): 0.145 wt %
- Iodide Formed, VIS ([2]; Iopamidol 200 mg I/mL, pH 7, agent:SBE7CD 1:0.05, autoclaved then VIS 72 h): 0.0574 wt %
- Iodide Formed, UV ([2]; Iopamidol 200 mg I/mL, pH 7, no SCD (1:0), autoclaved then UV 24 h): 0.150 wt %
- Iodide Formed, VIS ([2]; Iopamidol 200 mg I/mL, pH 7, no SCD (1:0), autoclaved then VIS 72 h): 0.0570 wt %
- Iodide formed ([3]; agent:SBE7-β-CD 1:0.1): 0.355 wt %
- Iodide formed ([3]; no SCD (1:0)): 0.356 wt %
Molecule: C[C@H](O)C(=O)Nc1c(I)c(C(=O)NC(CO)CO)c(I)c(C(=O)NC(CO)CO)c1I [Iopamidol, iopamidol]
- stabilization against degradation from autoclaving+visible light irradiation [2]: stabilized all formulations except iopamidol
